Several values for one entry are separate records, joined by “and”; a condition that tells them apart may be missing. Identical values can stand only once.
Legend:
Assay in all cases: biochemical
Format in all cases: binding
[1] = target: SfurOBP1 (Sogatella furcifera, UniProt V5T8N5); conditions: for Fluorescence competitive binding assay, fluorescence intensity: OBP1, three replicate columns
How it was run: (§1)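 1-NPN displacement assay with odorant competitor at 2–20 µM; protein and probe both 2.0 µM at pH 7.4. Ki is calculated from IC50 using the protein/1-NPN dissociation constant.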

[2] = target: SfurOBP11 (Sogatella furcifera, UniProt V5T6E3)
Sequence of SfurOBP11 (V5T6E3 entry or part of it): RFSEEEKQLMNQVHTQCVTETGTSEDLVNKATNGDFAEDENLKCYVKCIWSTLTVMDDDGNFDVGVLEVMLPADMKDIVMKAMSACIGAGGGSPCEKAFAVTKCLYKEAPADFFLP
How it was run: as §1

[3] = target: SfurOBP2 (Sogatella furcifera, UniProt V5T759)
Sequence of SfurOBP2 (V5T759 entry or part of it): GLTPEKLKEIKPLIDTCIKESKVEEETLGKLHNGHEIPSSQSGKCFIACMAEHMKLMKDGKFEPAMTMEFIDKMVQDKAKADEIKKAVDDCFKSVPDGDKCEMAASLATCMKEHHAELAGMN
How it was run: as §1

[4] = target: SfurOBP3 (Sogatella furcifera, UniProt V5T818); conditions: for Fluorescence competitive binding assay, fluorescence intensity: OBP3, three replicate columns
Sequence of SfurOBP3 (V5T818 entry or part of it): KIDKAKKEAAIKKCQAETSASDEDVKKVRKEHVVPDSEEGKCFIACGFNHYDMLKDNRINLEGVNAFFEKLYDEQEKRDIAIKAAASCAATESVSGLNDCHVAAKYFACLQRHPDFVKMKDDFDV
How it was run: as §1

Sequence of SfurOBP1 (V5T8N5 entry or part of it): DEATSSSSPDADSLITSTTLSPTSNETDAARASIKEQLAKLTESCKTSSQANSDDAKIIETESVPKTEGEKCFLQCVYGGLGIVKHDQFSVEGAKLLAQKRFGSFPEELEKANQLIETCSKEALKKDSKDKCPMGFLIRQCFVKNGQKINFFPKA

With CCCCCCCCCCOCCCCCCCCCC [didecyl ether] the “Fluorescence competitive binding assay, fluorescence intensity” value ([1]; ligand concentration 2 (μM)) was 13439 and 10181 and 10387, the “Fluorescence competitive binding assay, fluorescence intensity” value ([1]; ligand concentration 4 (μM)) was 12999 and 14054 and 13054 and the “Fluorescence competitive binding assay, fluorescence intensity” value ([1]; ligand concentration 6 (μM)) was 17843 and 17435 and 18755. For the same compound, the “Fluorescence competitive binding assay, fluorescence intensity” value ([1]; ligand concentration 8 (μM)) was 20344 and 21618 and 19391, the “Fluorescence competitive binding assay, fluorescence intensity” value ([1]; ligand concentration 10 (μM)) was 25143 and 20920 and 29597 and the “Fluorescence competitive binding assay, fluorescence intensity” value ([1]; ligand concentration 12 (μM)) was 25050 and 26471 and 24718. For the same compound, the “Fluorescence competitive binding assay, fluorescence intensity” value ([1]; ligand concentration 14 (μM)) was 31790 and 28307 and 28799, the “Fluorescence competitive binding assay, fluorescence intensity” value ([1]; ligand concentration 16 (μM)) was 25660 and 26360 and 27874 and the “Fluorescence competitive binding assay, fluorescence intensity” value ([1]; ligand concentration 18 (μM)) was 34663 and 37908 and 36994. The “Fluorescence competitive binding assay, fluorescence intensity” value ([1]; ligand concentration 20 (μM)) was 37718 and 33824 and 31648, the IC50 ([1]; SfurOBP1, protein and 1-NPN both 2.0 µM, competitor 2-20 µM, read-out: IC50) was greater than 20 µM and the IC50 ([2]; SfurOBP11, protein and 1-NPN both 2.0 µM, competitor 2-20 µM, read-out: IC50) was greater than 20 µM. For the same compound, the “Fluorescence intensity, fluorescence competitive binding assay, OBP11” value (shortened to “Fluorescence intensity … OBP11”) ([2]; ligand concentration 2, replicate 1) was 43164, the “Fluorescence intensity … OBP11” value ([2]; ligand concentration 2, replicate 2) was 38605 and the “Fluorescence intensity … OBP11” value ([2]; ligand concentration 2, replicate 3) was 37407. For the same compound, the “Fluorescence intensity … OBP11” value ([2]; ligand concentration 4, replicate 1) was 45394, the “Fluorescence intensity … OBP11” value ([2]; ligand concentration 4, replicate 2) was 44519 and the “Fluorescence intensity … OBP11” value ([2]; ligand concentration 4, replicate 3) was 44324. For the same compound, the “Fluorescence intensity … OBP11” value ([2]; ligand concentration 6, replicate 1) was 52018, the “Fluorescence intensity … OBP11” value ([2]; ligand concentration 6, replicate 2) was 51596 and the “Fluorescence intensity … OBP11” value ([2]; ligand concentration 6, replicate 3) was 52439. The “Fluorescence intensity … OBP11” value ([2]; ligand concentration 8, replicate 1) was 52547, the “Fluorescence intensity … OBP11” value ([2]; ligand concentration 8, replicate 2) was 53605 and the “Fluorescence intensity … OBP11” value ([2]; ligand concentration 8, replicate 3) was 57390. The “Fluorescence intensity … OBP11” value ([2]; ligand concentration 10, replicate 1) was 53386, the “Fluorescence intensity … OBP11” value ([2]; ligand concentration 10, replicate 2) was 50348 and the “Fluorescence intensity … OBP11” value ([2]; ligand concentration 10, replicate 3) was 61467. For the same compound, the “Fluorescence intensity … OBP11” value ([2]; ligand concentration 12, replicate 1) was 60450, the “Fluorescence intensity … OBP11” value ([2]; ligand concentration 12, replicate 2) was 60637 and the “Fluorescence intensity … OBP11” value ([2]; ligand concentration 12, replicate 3) was 60823. For the same compound, the “Fluorescence intensity … OBP11” value ([2]; ligand concentration 14, replicate 1) was 64649, the “Fluorescence intensity … OBP11” value ([2]; ligand concentration 14, replicate 2) was 70642 and the “Fluorescence intensity … OBP11” value ([2]; ligand concentration 14, replicate 3) was 65311. The “Fluorescence intensity … OBP11” value ([2]; ligand concentration 16, replicate 1) was 64270, the “Fluorescence intensity … OBP11” value ([2]; ligand concentration 16, replicate 2) was 67002 and the “Fluorescence intensity … OBP11” value ([2]; ligand concentration 16, replicate 3) was 65982. The “Fluorescence intensity … OBP11” value ([2]; ligand concentration 18, replicate 1) was 78706, the “Fluorescence intensity … OBP11” value ([2]; ligand concentration 18, replicate 2) was 81987 and the “Fluorescence intensity … OBP11” value ([2]; ligand concentration 18, replicate 3) was 75370. For the same compound, the “Fluorescence intensity … OBP11” value ([2]; ligand concentration 20, replicate 1) was 97463, the “Fluorescence intensity … OBP11” value ([2]; ligand concentration 20, replicate 2) was 75326 and the “Fluorescence intensity … OBP11” value ([2]; ligand concentration 20, replicate 3) was 72923. The IC50 ([3]; SfurOBP2, protein and 1-NPN both 2.0 µM, competitor 2-20 µM, read-out: IC50) was greater than 20 µM, the “Fluorescence competitive binding assay, OBP2 (raw fluorescence reading)” value ([3]; ligand concentration 2 (unit not given), replicate column 1 of 3) was 18915 and the “Fluorescence competitive binding assay, OBP2 (raw fluorescence reading)” value ([3]; ligand concentration 2 (unit not given), replicate column 2 of 3) was 20597. The “Fluorescence competitive binding assay, OBP2 (raw fluorescence reading)” value ([3]; ligand concentration 2 (unit not given), replicate column 3 of 3) was 23440, the “Fluorescence competitive binding assay, OBP2 (raw fluorescence reading)” value ([3]; ligand concentration 4 (unit not given), replicate column 1 of 3) was 24181 and the “Fluorescence competitive binding assay, OBP2 (raw fluorescence reading)” value ([3]; ligand concentration 4 (unit not given), replicate column 2 of 3) was 28014. The “Fluorescence competitive binding assay, OBP2 (raw fluorescence reading)” value ([3]; ligand concentration 4 (unit not given), replicate column 3 of 3) was 25410, the “Fluorescence competitive binding assay, OBP2 (raw fluorescence reading)” value ([3]; ligand concentration 6 (unit not given), replicate column 1 of 3) was 34688 and the “Fluorescence competitive binding assay, OBP2 (raw fluorescence reading)” value ([3]; ligand concentration 6 (unit not given), replicate column 2 of 3) was 31794. The “Fluorescence competitive binding assay, OBP2 (raw fluorescence reading)” value ([3]; ligand concentration 6 (unit not given), replicate column 3 of 3) was 34987, the “Fluorescence competitive binding assay, OBP2 (raw fluorescence reading)” value ([3]; ligand concentration 8 (unit not given), replicate column 1 of 3) was 33082 and the “Fluorescence competitive binding assay, OBP2 (raw fluorescence reading)” value ([3]; ligand concentration 8 (unit not given), replicate column 2 of 3) was 40303. The “Fluorescence competitive binding assay, OBP2 (raw fluorescence reading)” value ([3]; ligand concentration 8 (unit not given), replicate column 3 of 3) was 37763, the “Fluorescence competitive binding assay, OBP2 (raw fluorescence reading)” value ([3]; ligand concentration 10 (unit not given), replicate column 1 of 3) was 37285 and the “Fluorescence competitive binding assay, OBP2 (raw fluorescence reading)” value ([3]; ligand concentration 10 (unit not given), replicate column 2 of 3) was 44653. For the same compound, the “Fluorescence competitive binding assay, OBP2 (raw fluorescence reading)” value ([3]; ligand concentration 10 (unit not given), replicate column 3 of 3) was 45169, the “Fluorescence competitive binding assay, OBP2 (raw fluorescence reading)” value ([3]; ligand concentration 12 (unit not given), replicate column 1 of 3) was 40538 and the “Fluorescence competitive binding assay, OBP2 (raw fluorescence reading)” value ([3]; ligand concentration 12 (unit not given), replicate column 2 of 3) was 46457. The “Fluorescence competitive binding assay, OBP2 (raw fluorescence reading)” value ([3]; ligand concentration 12 (unit not given), replicate column 3 of 3) was 42564, the “Fluorescence competitive binding assay, OBP2 (raw fluorescence reading)” value ([3]; ligand concentration 14 (unit not given), replicate column 1 of 3) was 47395 and the “Fluorescence competitive binding assay, OBP2 (raw fluorescence reading)” value ([3]; ligand concentration 14 (unit not given), replicate column 2 of 3) was 46610. For the same compound, the “Fluorescence competitive binding assay, OBP2 (raw fluorescence reading)” value ([3]; ligand concentration 14 (unit not given), replicate column 3 of 3) was 49253, the “Fluorescence competitive binding assay, OBP2 (raw fluorescence reading)” value ([3]; ligand concentration 16 (unit not given), replicate column 1 of 3) was 41133 and the “Fluorescence competitive binding assay, OBP2 (raw fluorescence reading)” value ([3]; ligand concentration 16 (unit not given), replicate column 2 of 3) was 50168. The “Fluorescence competitive binding assay, OBP2 (raw fluorescence reading)” value ([3]; ligand concentration 16 (unit not given), replicate column 3 of 3) was 50416, the “Fluorescence competitive binding assay, OBP2 (raw fluorescence reading)” value ([3]; ligand concentration 18 (unit not given), replicate column 1 of 3) was 50240 and the “Fluorescence competitive binding assay, OBP2 (raw fluorescence reading)” value ([3]; ligand concentration 18 (unit not given), replicate column 2 of 3) was 52962. The “Fluorescence competitive binding assay, OBP2 (raw fluorescence reading)” value ([3]; ligand concentration 18 (unit not given), replicate column 3 of 3) was 54896, the “Fluorescence competitive binding assay, OBP2 (raw fluorescence reading)” value ([3]; ligand concentration 20 (unit not given), replicate column 1 of 3) was 51479 and the “Fluorescence competitive binding assay, OBP2 (raw fluorescence reading)” value ([3]; ligand concentration 20 (unit not given), replicate column 2 of 3) was 53666. For the same compound, the “Fluorescence competitive binding assay, OBP2 (raw fluorescence reading)” value ([3]; ligand concentration 20 (unit not given), replicate column 3 of 3) was 47381, the “Fluorescence competitive binding assay, fluorescence intensity” value ([4]; ligand concentration 2) was 87733 and 85025 and 77897 and the “Fluorescence competitive binding assay, fluorescence intensity” value ([4]; ligand concentration 4) was 115777 and 106868 and 104692. For the same compound, the “Fluorescence competitive binding assay, fluorescence intensity” value ([4]; ligand concentration 6) was 125530 and 125631 and 129726, the “Fluorescence competitive binding assay, fluorescence intensity” value ([4]; ligand concentration 8) was 107521 and 145667 and 147221 and the “Fluorescence competitive binding assay, fluorescence intensity” value ([4]; ligand concentration 10) was 173091 and 157740 and 127122. The “Fluorescence competitive binding assay, fluorescence intensity” value ([4]; ligand concentration 12) was 158103 and 182941 and 142916, the “Fluorescence competitive binding assay, fluorescence intensity” value ([4]; ligand concentration 14) was 176147 and 111843 and 160442 and the “Fluorescence competitive binding assay, fluorescence intensity” value ([4]; ligand concentration 16) was 151941 and 158990 and 157774. The “Fluorescence competitive binding assay, fluorescence intensity” value ([4]; ligand concentration 18) was 173084 and 168625 and 167342, the “Fluorescence competitive binding assay, fluorescence intensity” value ([4]; ligand concentration 20) was 193319 and 125518 and 175321 and the IC50 ([4]; SfurOBP3, protein and 1-NPN both 2.0 µM, competitor 2-20 µM, read-out: IC50) was greater than 20 µM.
